According to ChEMBL document CHEMBL5291721, “A preclinical secondary pharmacology resource illuminates target-adverse drug reaction associations of marketed drugs” (Nat Commun, 2023):

What was measured:
[1] = molecular target: T1, Alpha-1A adrenergic receptor (Homo sapiens, UniProt P35348)
T1 sequence (P35348 whole entry): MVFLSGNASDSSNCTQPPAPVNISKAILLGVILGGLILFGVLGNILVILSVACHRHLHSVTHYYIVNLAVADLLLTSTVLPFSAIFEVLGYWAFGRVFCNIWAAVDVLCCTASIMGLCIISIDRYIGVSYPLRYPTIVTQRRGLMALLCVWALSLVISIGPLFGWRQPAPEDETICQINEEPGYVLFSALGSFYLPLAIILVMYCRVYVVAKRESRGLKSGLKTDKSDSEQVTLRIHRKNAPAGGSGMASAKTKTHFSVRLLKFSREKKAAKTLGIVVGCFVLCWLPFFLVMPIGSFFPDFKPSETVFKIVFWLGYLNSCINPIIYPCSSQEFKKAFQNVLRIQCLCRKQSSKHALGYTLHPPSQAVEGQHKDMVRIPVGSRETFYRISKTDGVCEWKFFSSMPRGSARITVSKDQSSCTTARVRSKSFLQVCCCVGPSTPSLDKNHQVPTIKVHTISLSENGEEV

[2] = molecular target: T2, Alpha-2A adrenergic receptor (Homo sapiens, UniProt P08913); format: functional, cell-based
T2 sequence (P08913 whole entry): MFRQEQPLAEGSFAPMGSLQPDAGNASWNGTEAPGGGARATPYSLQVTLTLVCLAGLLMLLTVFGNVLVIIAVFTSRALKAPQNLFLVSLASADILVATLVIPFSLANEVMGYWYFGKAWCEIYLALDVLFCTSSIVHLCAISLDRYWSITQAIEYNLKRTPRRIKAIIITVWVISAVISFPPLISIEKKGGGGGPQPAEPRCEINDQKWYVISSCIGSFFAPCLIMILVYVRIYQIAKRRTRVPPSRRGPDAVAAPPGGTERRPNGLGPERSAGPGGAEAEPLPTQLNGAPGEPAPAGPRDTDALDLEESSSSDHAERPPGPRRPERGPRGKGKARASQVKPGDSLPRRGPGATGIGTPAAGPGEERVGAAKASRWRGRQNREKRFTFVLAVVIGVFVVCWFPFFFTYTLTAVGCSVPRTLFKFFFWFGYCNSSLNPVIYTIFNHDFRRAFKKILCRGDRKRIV

[3] = molecular target: T3, Cannabinoid receptor 1 (Homo sapiens, UniProt P21554); format: functional, cell-based
[4] = molecular target: T3, Cannabinoid receptor 1
[5] = molecular target: Gamma-aminobutyric acid receptor subunit alpha-1 (Rattus norvegicus, UniProt P62813)
[6] = molecular target: Histamine H2 receptor (Homo sapiens, UniProt P25021)
[7] = molecular target: 5-hydroxytryptamine receptor 2B (Homo sapiens, UniProt P41595); format: functional, cell-based
[8] = molecular target: Melanocortin receptor 4 (Homo sapiens, UniProt P32245)
[9] = molecular target: Mu-type opioid receptor (Homo sapiens, UniProt P35372)
[10] = molecular target: D(3) dopamine receptor (Homo sapiens, UniProt P35462)
[11] = molecular target: D(1A) dopamine receptor (Homo sapiens, UniProt P21728)
[12] = molecular target: T4, Androgen receptor (Rattus norvegicus, UniProt P15207); format: functional
T4 sequence (P15207 whole entry): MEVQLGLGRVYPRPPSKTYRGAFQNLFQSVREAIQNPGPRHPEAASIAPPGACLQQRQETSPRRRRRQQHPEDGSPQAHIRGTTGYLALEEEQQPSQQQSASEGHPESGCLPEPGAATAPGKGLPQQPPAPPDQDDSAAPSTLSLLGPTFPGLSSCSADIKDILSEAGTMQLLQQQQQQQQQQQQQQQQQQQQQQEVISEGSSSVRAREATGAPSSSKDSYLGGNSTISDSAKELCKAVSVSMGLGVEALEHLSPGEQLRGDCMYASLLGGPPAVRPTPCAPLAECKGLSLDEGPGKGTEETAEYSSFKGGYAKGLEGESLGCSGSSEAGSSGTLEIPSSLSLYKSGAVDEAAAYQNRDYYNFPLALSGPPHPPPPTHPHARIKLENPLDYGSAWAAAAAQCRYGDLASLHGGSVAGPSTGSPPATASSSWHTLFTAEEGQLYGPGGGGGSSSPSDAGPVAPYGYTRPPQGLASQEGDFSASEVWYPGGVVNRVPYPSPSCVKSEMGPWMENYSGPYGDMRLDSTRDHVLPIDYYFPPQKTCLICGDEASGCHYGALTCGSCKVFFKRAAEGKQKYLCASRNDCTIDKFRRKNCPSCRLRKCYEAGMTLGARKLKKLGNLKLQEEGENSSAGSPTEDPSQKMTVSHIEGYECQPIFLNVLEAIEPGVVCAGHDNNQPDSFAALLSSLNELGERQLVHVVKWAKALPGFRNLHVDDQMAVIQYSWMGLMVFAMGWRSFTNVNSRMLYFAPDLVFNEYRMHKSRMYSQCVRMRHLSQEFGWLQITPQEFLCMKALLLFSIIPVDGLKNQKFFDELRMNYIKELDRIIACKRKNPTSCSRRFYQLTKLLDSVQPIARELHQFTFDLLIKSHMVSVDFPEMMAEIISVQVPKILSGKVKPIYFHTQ

[13] = molecular target: Beta-2 adrenergic receptor (Homo sapiens, UniProt P07550); format: functional, cell-based
Further: assay procedure not described here.

T3 sequence (P21554 whole entry): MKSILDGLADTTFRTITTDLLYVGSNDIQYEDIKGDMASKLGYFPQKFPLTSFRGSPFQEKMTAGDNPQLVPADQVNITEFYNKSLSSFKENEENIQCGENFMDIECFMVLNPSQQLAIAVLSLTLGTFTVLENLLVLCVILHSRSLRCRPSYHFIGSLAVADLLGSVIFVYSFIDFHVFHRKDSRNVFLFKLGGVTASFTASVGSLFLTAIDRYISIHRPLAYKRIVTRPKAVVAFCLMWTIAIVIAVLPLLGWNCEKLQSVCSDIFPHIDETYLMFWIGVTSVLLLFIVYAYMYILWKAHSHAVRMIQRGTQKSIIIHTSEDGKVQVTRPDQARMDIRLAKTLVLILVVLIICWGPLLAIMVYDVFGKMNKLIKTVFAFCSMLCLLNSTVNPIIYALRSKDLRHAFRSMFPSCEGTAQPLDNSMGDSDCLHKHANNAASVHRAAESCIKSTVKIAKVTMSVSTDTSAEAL
Sequence of 5-hydroxytryptamine receptor 2B (P41595 whole entry): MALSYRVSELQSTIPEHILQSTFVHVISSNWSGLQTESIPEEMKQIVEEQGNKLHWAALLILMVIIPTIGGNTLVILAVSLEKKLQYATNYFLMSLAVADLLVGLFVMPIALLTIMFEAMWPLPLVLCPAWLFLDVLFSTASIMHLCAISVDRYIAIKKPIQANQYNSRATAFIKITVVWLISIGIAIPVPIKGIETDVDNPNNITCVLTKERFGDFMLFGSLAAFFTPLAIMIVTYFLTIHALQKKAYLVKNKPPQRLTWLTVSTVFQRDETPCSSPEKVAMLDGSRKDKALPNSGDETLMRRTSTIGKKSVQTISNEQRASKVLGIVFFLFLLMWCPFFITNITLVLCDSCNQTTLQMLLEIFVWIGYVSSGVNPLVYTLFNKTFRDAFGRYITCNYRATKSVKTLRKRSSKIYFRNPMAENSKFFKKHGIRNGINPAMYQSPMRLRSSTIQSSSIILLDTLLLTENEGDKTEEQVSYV
Sequence of Melanocortin receptor 4 (P32245 whole entry): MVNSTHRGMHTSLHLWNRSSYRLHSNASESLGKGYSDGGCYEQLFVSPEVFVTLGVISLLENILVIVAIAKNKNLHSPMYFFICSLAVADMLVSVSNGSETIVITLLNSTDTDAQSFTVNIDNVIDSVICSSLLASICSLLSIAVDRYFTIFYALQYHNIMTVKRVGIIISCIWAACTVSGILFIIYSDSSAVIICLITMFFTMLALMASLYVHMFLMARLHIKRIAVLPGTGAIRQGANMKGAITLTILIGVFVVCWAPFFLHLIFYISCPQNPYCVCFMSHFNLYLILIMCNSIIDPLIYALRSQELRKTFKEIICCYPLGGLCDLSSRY
Sequence of Beta-2 adrenergic receptor (P07550 whole entry): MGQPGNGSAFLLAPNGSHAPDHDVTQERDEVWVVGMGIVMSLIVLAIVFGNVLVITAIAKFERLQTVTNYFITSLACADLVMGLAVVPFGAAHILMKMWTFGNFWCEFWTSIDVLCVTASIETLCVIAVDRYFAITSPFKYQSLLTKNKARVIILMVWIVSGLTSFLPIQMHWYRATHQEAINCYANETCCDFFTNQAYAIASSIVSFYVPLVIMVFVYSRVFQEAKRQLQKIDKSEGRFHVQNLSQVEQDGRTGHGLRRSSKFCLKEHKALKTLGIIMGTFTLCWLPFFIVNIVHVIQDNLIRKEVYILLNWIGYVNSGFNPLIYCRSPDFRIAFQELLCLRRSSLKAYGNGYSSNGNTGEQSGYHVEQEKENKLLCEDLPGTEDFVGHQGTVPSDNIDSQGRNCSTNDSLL
Sequence of D(3) dopamine receptor (P35462 whole entry): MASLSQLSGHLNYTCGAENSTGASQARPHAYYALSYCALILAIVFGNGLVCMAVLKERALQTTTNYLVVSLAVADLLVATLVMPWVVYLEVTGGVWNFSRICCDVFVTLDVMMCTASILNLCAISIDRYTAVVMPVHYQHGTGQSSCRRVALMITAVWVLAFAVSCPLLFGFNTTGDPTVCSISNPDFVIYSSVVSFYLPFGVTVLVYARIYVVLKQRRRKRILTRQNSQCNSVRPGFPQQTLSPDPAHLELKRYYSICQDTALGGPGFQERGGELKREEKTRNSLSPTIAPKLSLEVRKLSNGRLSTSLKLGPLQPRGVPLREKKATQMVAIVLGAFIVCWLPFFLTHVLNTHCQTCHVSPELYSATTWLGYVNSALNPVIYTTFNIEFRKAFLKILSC
Sequence of D(1A) dopamine receptor (P21728 whole entry): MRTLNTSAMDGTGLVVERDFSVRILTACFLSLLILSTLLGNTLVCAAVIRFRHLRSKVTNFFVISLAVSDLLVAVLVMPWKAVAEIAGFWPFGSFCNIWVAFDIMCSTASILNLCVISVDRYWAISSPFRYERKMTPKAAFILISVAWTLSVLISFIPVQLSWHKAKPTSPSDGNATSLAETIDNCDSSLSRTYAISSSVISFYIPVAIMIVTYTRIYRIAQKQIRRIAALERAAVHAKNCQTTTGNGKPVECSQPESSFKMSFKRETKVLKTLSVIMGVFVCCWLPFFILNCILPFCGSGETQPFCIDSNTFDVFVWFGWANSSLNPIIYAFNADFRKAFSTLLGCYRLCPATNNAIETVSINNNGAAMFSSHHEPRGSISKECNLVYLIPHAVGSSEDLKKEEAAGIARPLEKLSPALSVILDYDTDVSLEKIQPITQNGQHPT
Sequence of Mu-type opioid receptor (P35372 whole entry): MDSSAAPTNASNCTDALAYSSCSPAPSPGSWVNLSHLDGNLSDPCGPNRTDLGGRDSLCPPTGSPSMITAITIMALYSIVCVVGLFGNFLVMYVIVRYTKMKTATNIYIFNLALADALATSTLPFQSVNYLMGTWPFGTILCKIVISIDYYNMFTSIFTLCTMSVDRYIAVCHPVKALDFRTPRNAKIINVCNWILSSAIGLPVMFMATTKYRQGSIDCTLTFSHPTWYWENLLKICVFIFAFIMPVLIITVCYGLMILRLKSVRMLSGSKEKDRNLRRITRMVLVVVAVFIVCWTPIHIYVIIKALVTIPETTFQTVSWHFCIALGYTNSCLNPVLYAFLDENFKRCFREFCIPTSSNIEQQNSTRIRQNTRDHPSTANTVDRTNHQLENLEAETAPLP
Sequence of Histamine H2 receptor (P25021 whole entry): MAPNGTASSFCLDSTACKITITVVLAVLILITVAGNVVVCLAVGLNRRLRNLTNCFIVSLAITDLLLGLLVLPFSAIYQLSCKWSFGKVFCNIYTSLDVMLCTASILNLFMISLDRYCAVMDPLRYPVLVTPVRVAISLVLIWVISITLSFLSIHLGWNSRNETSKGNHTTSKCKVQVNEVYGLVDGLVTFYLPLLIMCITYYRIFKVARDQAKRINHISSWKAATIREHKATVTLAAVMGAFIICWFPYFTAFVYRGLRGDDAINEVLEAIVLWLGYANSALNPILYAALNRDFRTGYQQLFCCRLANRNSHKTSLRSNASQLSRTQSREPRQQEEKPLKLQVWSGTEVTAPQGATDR
Sequence of Gamma-aminobutyric acid receptor subunit alpha-1 (P62813 whole entry): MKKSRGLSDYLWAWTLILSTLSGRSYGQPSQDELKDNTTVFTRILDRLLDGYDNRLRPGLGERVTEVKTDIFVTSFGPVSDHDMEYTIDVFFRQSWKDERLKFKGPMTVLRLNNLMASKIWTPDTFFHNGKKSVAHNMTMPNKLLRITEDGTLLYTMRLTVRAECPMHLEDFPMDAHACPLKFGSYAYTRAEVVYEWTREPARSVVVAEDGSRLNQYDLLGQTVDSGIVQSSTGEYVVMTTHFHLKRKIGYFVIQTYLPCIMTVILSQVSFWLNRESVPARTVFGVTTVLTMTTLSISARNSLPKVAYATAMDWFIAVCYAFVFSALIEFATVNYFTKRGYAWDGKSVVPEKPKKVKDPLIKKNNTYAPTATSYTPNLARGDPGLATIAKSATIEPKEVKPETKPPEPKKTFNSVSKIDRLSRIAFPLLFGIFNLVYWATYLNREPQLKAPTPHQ

| SMILES | AC50 [1] | AC50 [2] | AC50 [3] | AC50 [4] | AC50 [5] | AC50 [6] | AC50 [7] | AC50 [8] | AC50 [9] | AC50 [10] | AC50 [11] | AC50 [12] | AC50 [13] |
| --- | --- | --- | --- | --- | --- | --- | --- | --- | --- | --- | --- | --- | --- |
| [H]/N=C(/N)N[C@H]1[C@H](O)[C@@H](O)[C@H](O[C@@H]2O[C@@H](C)[C@](O)(C=O)[C@H]2O[C@@H]2O[C@@H](CO)[C@H](O)[C@@H](O)[C@@H]2NC)[C@@H](N/C(N)=N\[H])[C@@H]1O [STREPTOMYCIN] | > 10 µM | > 30 µM | > 30 µM | > 30 µM | > 30 µM | > 10 µM | > 30 µM | > 30 µM | > 10 µM | > 30 µM | > 10 µM |  |  |
| COc1ccc(/C=C/C(=O)Nc2ccccc2C(=O)O)cc1OC | 18 µM | > 30 µM |  | > 30 µM | > 30 µM |  | > 30 µM |  | > 30 µM | > 30 µM |  | > 30 µM |  |
| COC(=O)N[C@@H](C)CNc1nccc(-c2cn(C(C)C)nc2-c2cc(Cl)cc(NS(C)(=O)=O)c2F)n1 [ENCORAFENIB] | > 30 µM | > 30 µM |  | > 30 µM | > 30 µM |  | 28 µM | > 30 µM |  | > 30 µM |  | > 30 µM |  |
| CC(C)(C)NCC(O)c1cc(Cl)c(N)c(Cl)c1 (stereo not drawn) [CLENBUTEROL] | 13 µM | > 30 µM | > 30 µM | > 30 µM | > 30 µM |  | > 30 µM | > 30 µM |  | > 30 µM |  | > 30 µM |  |
| N[C@H](Cc1cc(I)c(Oc2cc(I)c(O)c(I)c2)c(I)c1)C(=O)O [DEXTROTHYROXINE] | > 10 µM | > 10 µM | > 30 µM | > 10 µM | > 10 µM | > 10 µM | 26 µM | > 30 µM | > 30 µM | > 10 µM | > 10 µM |  | > 30 µM |
| N#C[C@@H]1CCCN1C(=O)CNC12CC3CC(CC(O)(C3)C1)C2 [VILDAGLIPTIN] |  | > 30 µM |  | > 30 µM | > 30 µM | > 10 µM | > 30 µM | > 30 µM | > 10 µM | > 30 µM | > 10 µM |  |  |
| NCCCC(O)(P(=O)(O)O)P(=O)(O)O [ALENDRONIC ACID] | > 10 µM | > 10 µM |  | > 10 µM | > 10 µM | > 10 µM |  | > 30 µM |  |  |  |  |  |
| CC(C)CC(N(C)C)C1(c2ccc(Cl)cc2)CCC1 (stereo not drawn) [SIBUTRAMINE] |  | > 30 µM | > 30 µM | > 10 µM | > 10 µM | > 10 µM |  | > 30 µM | > 30 µM | > 10 µM | > 10 µM |  |  |
| CC(CCc1ccccc1)NC(C)C(O)c1ccc(O)cc1 (stereo not drawn) [NYLIDRIN] |  | > 10 µM | > 30 µM | > 10 µM | > 10 µM | > 10 µM | 6.9 µM | > 30 µM | 9.9 µM | 1.3 µM | > 10 µM |  | 0.082 µM |
| CC#CCn1c(N2CCC[C@@H](N)C2)nc2c1c(=O)n(Cc1nc(C)c3ccccc3n1)c(=O)n2C [LINAGLIPTIN] |  | > 10 µM |  | > 10 µM | > 10 µM | 12.3 µM | > 10 µM | 41.8 µM | > 30 µM | > 30 µM | > 10 µM |  |  |
| O=C1Nc2ccc(Cl)cc2C(c2ccccc2)=NC1O (stereo not drawn) [OXAZEPAM] |  | > 10 µM | > 30 µM | > 10 µM | > 10 µM | > 10 µM | > 10 µM | > 30 µM | > 10 µM | > 10 µM | > 10 µM |  | > 30 µM |
| CCN(CC)C(=O)C1CN2CCc3cc(OC)c(OC)cc3C2CC1OC(C)=O (stereo not drawn) [BENZQUINAMIDE] | > 10 µM | > 30 µM | > 30 µM | > 10 µM | > 30 µM |  | 0.32 µM | > 10 µM | > 30 µM | 14.4 µM |  | > 30 µM | > 30 µM |
| Nc1ccc(C(=O)O)c(O)c1 [AMINOSALICYLIC ACID] |  | > 30 µM | > 30 µM |  | > 30 µM |  | > 30 µM |  |  | > 30 µM |  | > 30 µM | > 30 µM |
| CCCCC[C@H](O)/C=C/[C@H]1[C@H](O)CC(=O)[C@@H]1C/C=C\CCCC(=O)O [DINOPROSTONE] |  | > 30 µM | > 30 µM |  | > 30 µM |  | > 30 µM |  |  | > 30 µM | > 30 µM | > 30 µM |  |
| COC1=C(OC)C(=O)C(CCCCCCCCCCO)=C(C)C1=O [IDEBENONE] | > 10 µM | > 10 µM | > 30 µM | > 10 µM | > 10 µM | > 10 µM | > 10 µM | > 30 µM | > 10 µM | > 10 µM | > 10 µM |  | > 30 µM |
| CCCC(C)(COC(N)=O)COC(=O)NC(C)C (stereo not drawn) [CARISOPRODOL] | 13.3 µM | > 10 µM | > 30 µM | > 10 µM | > 10 µM | > 10 µM | > 10 µM | > 30 µM | > 30 µM | > 10 µM | > 10 µM |  | > 30 µM |
| O=C(CCCN1CCC(n2c(O)nc3ccccc32)CC1)c1ccc(F)cc1 [BENPERIDOL] |  | > 30 µM | > 30 µM |  | > 30 µM |  | 6.59 µM |  |  | 0.0053 µM |  | 7.1 µM | > 30 µM |
| CC(=O)OCC(CCn1cnc2cnc(N)nc21)COC(C)=O [FAMCICLOVIR] | 11.6 µM | > 10 µM | > 30 µM | > 10 µM | > 10 µM | > 10 µM | > 10 µM | > 30 µM | > 30 µM | > 10 µM | > 10 µM |  | > 30 µM |
| O=C1CN=C(c2ccccc2)c2cc(Cl)ccc2N1 [NORDAZEPAM] | > 10 µM | > 10 µM | > 30 µM | > 10 µM | > 10 µM | > 10 µM | > 10 µM | > 30 µM | > 10 µM | > 10 µM | > 10 µM |  | > 30 µM |
